By IC50 is commonly meant the midpoint of a concentration-inhibition curve. By inhibition is commonly meant how much of the control response was suppressed.

One assay has as its system Isolated Rat Bladder. The assay is described as follows: Bladder smooth muscle relaxing activity: inhibition of KCl-enhanced contractions in isolated rat bladder strips. As to conditions: 15 mM KCl; for IC50: 37 deg. C, read-out: IC50 of Bladder Contraction; for inhibition at up to 30 µM: at 30 μM, value in parentheses, read-out: % Inhibition of Bladder Contraction at 30 μM. Format: cell-based, Sprague-Dawley rats. The source says:
Bladder smooth muscle relaxing activity of the compounds of this invention was established in accordance with standard pharmaceutically accepted test procedures in representative compounds as follows:
Sprague-Dawley rats (150-200 g) are rendered unconscious by CO2 asphyxiation and then euthanized by cervical dislocation. The bladder is removed into warm (37 deg. C) physiological salt solution (PSS) of the following composition (mM): NaCl, 118.4; KCl, 4.7; CaCl2, 2.5; […]; NaHCO3, 24.9; KH2 PO4, 1.2; glucose, 11.1; EDTA, 0.023; gassed with […]; pH 7.4. The bladder is opened and then cut into strips 1-2 mm in width and 7-10 mm in length. The strips are subsequently suspended in a 10 ml tissue bath under an initial resting tension of 1.5 g. The strips are held in place by two surgical clips one of which is attached to fixed hook while the other is attached to an isometric force transducer. […] The carbachol is then washed out and the tissue allowed to relax to its resting level of activity. Following 1 further 30 min period of recovery an additional 15 mM KCl are introduced into the tissue bath. This increase in KCl concentration results in a large increase in the amplitude of spontaneous contractions (and initiation of contractions in previously quiescent strips) superimposed upon a small increase in basal tone. Following stabilization of this enhanced level of contractile activity, incremental increases in the concentration of test compound or vehicle are introduced into the tissue bath. Contractile activity is measured for each compound or vehicle concentration during the last rain of a 30 rain challenge.
Isometric force developed by the bladder strips is measured using a […] to elicit 50% inhibition of pre-drug contractile activity (IC50 concentration) is calculated from this concentration-response curve. The maximum percentage inhibition of contractile activity evoked by a test compound is also recorded for concentrations of test compound<or equal to 30 uM.

The subject of assay [1] is Isolated Rat Aortic Tissue. The assay is described as follows: Aortic smooth muscle relaxing activity: inhibition of KCl-evoked contracture in isolated rat aortic rings. Conditions: isolated rat thoracic aorta rings, 25 mM KCl; read-out: IC50 of Aorta Contraction. Format: cell-based, Sprague-Dawley rats. The source says: Aortic smooth muscle relaxing activity of the compounds of this invention was established in accordance with standard pharmaceutically accepted test procedures in representative compounds as follows:
Sprague-Dawley rats (150-200 g) are rendered unconscious by CO2 asphyxiation and then euthanized by cervical dislocation. The thoracic aorta is removed into warm (37 deg. C.) Krebs-Henseleit solution. The aorta is cleaned of fat and loose adventitia and cut into rings 3-4 mm in width. The rings are subsequently suspended between two stainless steel wire tissue holders in a 10 ml tissue bath. One wire tissue holder is attached to fixed hook while the other is attached to an isometric force transducer. Resting tension is set at 1.0 g. The tissues are allowed to recover for a period of 60 mins prior to beginning the experiment. The tissues are challenged with 25 mM KCl to elicit a contracture. The tissue are then washed repeatedly with fresh Krebs-Henseleit solution over a period of 30 rains and allowed to recover to baseline tension. 25 mM KCl is then introduced into the tissue bath to evoke a contracture that is allowed to stabilize for not less than 45 rains. Increasing concentrations of test compound or vehicle are then added to the tissue bath in a cumulative fashion.
Isometric force developed by the aortic rings is measured using force transducer and recorded on a polygraph. The percentage inhibition of contractile force evoked by each concentration of a given test compound is used to generate a concentration-response curve. The concentration required to elicit 50% inhibition of pre-drug contractile activity (IC50 concentration) is calculated from this concentration-response curve. The maximum percentage inhibition of contractile activity evoked by a test compound is also recorded for concentrations of test compound<or equal to 30 uM.

Regarding `CC(C)Oc1c(-c2ccc3c(c2)[C@@H](N2Cc4ccccc4C2=O)[C@H](O)C(C)(C)O3)c(=O)c1=O` (relative stereo) [Example 3, 3-[trans-3-hydroxy-2,2-dimethyl-4-(1-oxo-1,3-dihydroisoindol-2-yl)-chroman-6-yl]-4-isopropoxy-cyclobut-3-ene-1,2-dione], the values for the IC50 (in the assay on Isolated Rat Bladder; in assay [1]) were 10100 ± 390 nM and 1160 ± 210 nM, respectively.
As to `Cc1c(-c2ccc3c(c2)[C@@H](N2Cc4ccccc4C2=O)[C@H](O)C(C)(C)O3)c(=O)c1=O` (relative stereo) [Example 9, 3-[trans-3-Hydroxy-2,2-dimethyl-4-(1-oxo-1,3-dihydro-isoindol-2-yl)-chroman-6-yl]-4-methyl-cyciobut-3-ene-1,2-dione], the IC50 in the assay on Isolated Rat Bladder worked out at 110 nM; in assay [1], 15 ± 7 nM.
The like results for `CC1(C)Oc2ccc(-c3c(N)c(=O)c3=O)cc2[C@@H](N2Cc3ccccc3C2=O)[C@@H]1O` (relative stereo) [Example 4, 4-Amino-3-[trans-3-hydroxy-2,2-dimethyl-4-(1-oxo-1,3-dihydroisoindol-2-yl)-chroman-6-yl]-cyclobut-3-ene-1,2-dione] were, in that order, 190 ± 20 nM and 170 ± 40 nM.
For `CC1(C)Oc2ccc(-c3c(O)c(=O)c3=O)cc2[C@@H](N2Cc3ccccc3C2=O)[C@@H]1O` (relative stereo) [Example 8, 3-Hydroxy-4-[trans-3-hydroxy-2,2-dimethyl-4-(1-oxo-1,3-dihydroisoindol-2-yl)-chroman-6-yl]-cyclobut-3-ene-1,2-dione], the IC50 in the assay on Isolated Rat Bladder worked out at 21900 nM.
As to `CC1(C)Oc2ccc(-c3c(N4CCCC4)c(=O)c3=O)cc2[C@@H](N2Cc3ccccc3C2=O)[C@@H]1O` (relative stereo) [Example 6, 3-[trans-3-Hydroxy-2,2-dimethyl-4-(1-oxo-1,3-dihydroisoindol-2-yl)-chroman-6-yl]-4-pyrrolindin-1-yl-cyclobut-3-ene-1,2-dione], the inhibition at up to 30 µM in the assay with Isolated Rat Bladder is 33%.
Still for that read-out and setting: next, `CC1(C)Oc2ccc(-c3c(NCCO)c(=O)c3=O)cc2[C@@H](N2Cc3ccccc3C2=O)[C@@H]1O` (relative stereo) [Example 5, 3-[trans-3-Hydroxy-2,2-dimethyl-4-(1-oxo-1,3-dihydroisoindol-2-yl),-chroman-6-yl]-4-(2-hydroxy-ethylamino)-cyclobut-3-ene-1,2-dione]: 14%.
Consider `CNc1c(-c2ccc3c(c2)[C@@H](N2Cc4ccccc4C2=O)[C@H](O)C(C)(C)O3)c(=O)c1=O` (relative stereo) [Example 7, 3-[trans-3-Hydroxy-2,2-dimethyl-4-(1-oxo-1,3-dihydroisoindol-2-yl)-chroman-6-yl]-4-methylamino-cyclobut-3-ene-1,2-dione], for which the IC50 with Isolated Rat Bladder came out at 1620 nM; in assay [1], 830 ± 240 nM.

Values taken from US5500442A, “Cyclobut-3-ene-1,2-dione derivatives as smooth muscle relaxants” (American Home Products Corporation, priority 1994, dated 1996).
